IC50 data for twelve compounds are collected here from patent publication US7098332B2, “5,8-Dihydro-6H-pyrido[2,3-d]pyrimidin-7-ones” (Hoffmann-La Roche Inc., priority 2002, dated 2006).

The IC50 is the point on the concentration scale where inhibition reaches its midpoint.

Holding throughout (assay type): biochemical
The target of assay [1] is PDGFR. In words: PDGFR kinase HTRF assay. As to conditions: 2.3 μM ATP. How it is done: (§1) To determine inhibition of KDR, FGFR, EGFR, and PDGFR activity, kinase assays were conducted using an HTRF (Homogeneous Time Resolved Fluorescence) assay. This assay is described in A. J. Kolb et. al., Drug Discovery Today, 1998, 3(7), p 333.
(§2) Kinase activity assays were performed in 96-well polypropylene plates (Falcon) with a total volume of 90 μL in each well. Each well contained 1 μM KDR substrate (Biotin-EEEEYFELVAKKKK), 1 nM activated KDR, and a test compound with one of 8 assay concentrations ranging from 100 μM to […] (1:5 serial dilution). The kinase activity assay was done in the presence of 100 mM HEPES, pH 7.4, 1 mM DTT, 0.1 mM Na2VO4, 25 mM MgCl2, 50 mM NaCl (from KDR stock solution), 1% DMSO (from compound), 0.3 mM ATP (at Km concentration) and 0.02% BSA. The reaction was incubated at 37° C. for 30 minutes. To stop the KDR reaction, 72 μL of reaction mixture was transferred into a STOP plate containing 18 μL of revelation buffer (20 mM EDTA, 50 mM HEPES, pH 7.4, 0.02% BSA, 10 nM Eu-labelled anti-pY antibody (final conc. 2 nM), and 100 nM streptavidin (final conc. 20 nM)). After mixing, 35 μL of solution was transferred into duplicate wells of a 384-well black plate (Costar), and read at 615/665 nm on a Wallac Victor 5 reader.
The PDGFR kinase activity assay was performed with 1 μM substrate (Biotin-EEEEYFELV), 1.0 nM PDGFR, test compounds, 100 mM HEPES, pH 7.4, 1 mM DTT, 5 mM MgCl2, 2 mM MnCl2, 1% DMSO, 2.3 μM ATP (Km for PDGFR), 0.1 mM Na2VO4, and 0.02% BSA. The rest of the assay was performed in the same manner as the KDR assay.
(§3) Compound IC50 values were determined from duplicate sets of data, and calculated by using Excel and fitting data to equation Y=[(a−b)/{1+(X/c)^d]+b, where a and b are enzyme activity in the presence of no test inhibitor compound and an infinite amount of inhibitor test compound, respectively, c is the IC50 and d is the hill constant of the compound response. The IC50 value is the concentration of test compound that reduces by 50% the enzyme activity under the test conditions described.

Assay [2] has as its target T1, FGFR.
T1 construct: fused on or other part: GST tag
Nature of the assay: FGFR kinase HTRF assay. The conditions noted are these: 10 μM ATP. How it is done:
as §1, §2
FGFR, EGFR, and PDGFR activity assays were carried out as described above for the KDR activity assay with the following differences. GST-tagged FGFR enzyme was activated at room temperature for 1 hour in the following activation buffer: 100 mM HEPES, pH 7.4, 50 mM NaCl, 20 mM MgCl2, and 4 mM ATP. The kinase activity assay was performed with 1 μM substrate (Biotin-EEEEYFELV), 1.5 nM activated FGFR, and test compound in the presence of 100 mM HEPES, 1 mM DTT, 0.4 mM MgCl2, 0.4 mM MnCl2, 50 mM NaCl, 1% DMSO, 10 μM ATP (Km=8.5 μM for FGFR), 0.1 mM Na2VO4, and 0.02% BSA, in a total volume of 90 μL. The rest of the assay was performed in the same manner as KDR assay.
as §3

Assay [3] concerns the target T2, KDR (Homo sapiens, UniProt P35968).
T2 construct: EEE tag
Nature of the assay: KDR kinase HTRF assay. The conditions noted are these: 0.3 mM ATP. How it is done: as §1
Prior to kinase reaction, recombinant EEE-tagged KDR was activated in the presence of activation buffer (50 mM HEPES, pH 7.4, 1 mM DTT, 10% glycerol, 150 mM NaCl, 0.1 mM EDTA, 26 mM MgCl2, and 4 mM ATP). The enzyme was incubated at 4° C. for 1 hour.
as §2, §3
On the technique in general: In TR-FRET formats the signal depends on donor and acceptor labels being close together.

Assay [4] deals with EGFR (Homo sapiens, UniProt P00533). In words: EGFR kinase HTRF assay. The conditions noted are these: 0.5 μM ATP. How it is done:
as §1, §2
The EGFR kinase activity assay was performed with 1 μM substrate (Biotin-EEEEYFELV), 1.5 nM EGFR, test compounds, 100 mM HEPES, pH 7.4, 1 mM DTT, 5 mM MgCl2, 2 mM MnCl2, 1% DMSO, 0.5 μM ATP (Km for EGFR), 0.1 mM Na2VO4, and 0.02% BSA. The rest of the assay was performed in the same manner as the KDR assay.
as §3

EGFR, sequence (P00533 25-1210, species assumed): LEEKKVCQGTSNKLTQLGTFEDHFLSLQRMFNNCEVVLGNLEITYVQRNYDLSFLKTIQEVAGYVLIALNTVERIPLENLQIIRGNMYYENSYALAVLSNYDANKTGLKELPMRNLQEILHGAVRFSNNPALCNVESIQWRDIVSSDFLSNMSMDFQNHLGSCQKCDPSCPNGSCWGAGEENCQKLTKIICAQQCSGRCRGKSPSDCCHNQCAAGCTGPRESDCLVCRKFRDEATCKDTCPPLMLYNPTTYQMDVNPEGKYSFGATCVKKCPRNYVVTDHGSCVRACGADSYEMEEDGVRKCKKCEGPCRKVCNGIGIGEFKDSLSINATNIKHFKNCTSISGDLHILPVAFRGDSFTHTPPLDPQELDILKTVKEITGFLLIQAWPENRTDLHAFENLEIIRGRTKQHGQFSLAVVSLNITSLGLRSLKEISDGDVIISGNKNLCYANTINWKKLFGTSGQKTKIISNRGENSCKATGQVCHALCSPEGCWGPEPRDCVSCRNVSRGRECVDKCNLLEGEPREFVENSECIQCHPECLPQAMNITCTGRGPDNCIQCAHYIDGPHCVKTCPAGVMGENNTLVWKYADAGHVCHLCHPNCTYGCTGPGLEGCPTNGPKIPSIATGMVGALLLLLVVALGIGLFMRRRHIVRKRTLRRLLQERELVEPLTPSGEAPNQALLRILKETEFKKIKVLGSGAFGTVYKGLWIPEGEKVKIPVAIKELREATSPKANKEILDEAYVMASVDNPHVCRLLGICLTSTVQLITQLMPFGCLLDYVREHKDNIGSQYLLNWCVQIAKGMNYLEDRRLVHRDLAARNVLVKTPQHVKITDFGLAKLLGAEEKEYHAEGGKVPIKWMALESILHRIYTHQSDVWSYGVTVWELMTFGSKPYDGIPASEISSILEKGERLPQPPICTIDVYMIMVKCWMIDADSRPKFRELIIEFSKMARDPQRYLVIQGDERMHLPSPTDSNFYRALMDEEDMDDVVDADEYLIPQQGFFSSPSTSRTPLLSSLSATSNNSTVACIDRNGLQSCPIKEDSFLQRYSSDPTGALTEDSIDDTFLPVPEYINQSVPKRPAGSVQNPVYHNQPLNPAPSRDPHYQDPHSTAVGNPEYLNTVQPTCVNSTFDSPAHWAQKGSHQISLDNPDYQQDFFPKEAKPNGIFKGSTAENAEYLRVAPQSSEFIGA
T2 sequence (P35968 20-1356): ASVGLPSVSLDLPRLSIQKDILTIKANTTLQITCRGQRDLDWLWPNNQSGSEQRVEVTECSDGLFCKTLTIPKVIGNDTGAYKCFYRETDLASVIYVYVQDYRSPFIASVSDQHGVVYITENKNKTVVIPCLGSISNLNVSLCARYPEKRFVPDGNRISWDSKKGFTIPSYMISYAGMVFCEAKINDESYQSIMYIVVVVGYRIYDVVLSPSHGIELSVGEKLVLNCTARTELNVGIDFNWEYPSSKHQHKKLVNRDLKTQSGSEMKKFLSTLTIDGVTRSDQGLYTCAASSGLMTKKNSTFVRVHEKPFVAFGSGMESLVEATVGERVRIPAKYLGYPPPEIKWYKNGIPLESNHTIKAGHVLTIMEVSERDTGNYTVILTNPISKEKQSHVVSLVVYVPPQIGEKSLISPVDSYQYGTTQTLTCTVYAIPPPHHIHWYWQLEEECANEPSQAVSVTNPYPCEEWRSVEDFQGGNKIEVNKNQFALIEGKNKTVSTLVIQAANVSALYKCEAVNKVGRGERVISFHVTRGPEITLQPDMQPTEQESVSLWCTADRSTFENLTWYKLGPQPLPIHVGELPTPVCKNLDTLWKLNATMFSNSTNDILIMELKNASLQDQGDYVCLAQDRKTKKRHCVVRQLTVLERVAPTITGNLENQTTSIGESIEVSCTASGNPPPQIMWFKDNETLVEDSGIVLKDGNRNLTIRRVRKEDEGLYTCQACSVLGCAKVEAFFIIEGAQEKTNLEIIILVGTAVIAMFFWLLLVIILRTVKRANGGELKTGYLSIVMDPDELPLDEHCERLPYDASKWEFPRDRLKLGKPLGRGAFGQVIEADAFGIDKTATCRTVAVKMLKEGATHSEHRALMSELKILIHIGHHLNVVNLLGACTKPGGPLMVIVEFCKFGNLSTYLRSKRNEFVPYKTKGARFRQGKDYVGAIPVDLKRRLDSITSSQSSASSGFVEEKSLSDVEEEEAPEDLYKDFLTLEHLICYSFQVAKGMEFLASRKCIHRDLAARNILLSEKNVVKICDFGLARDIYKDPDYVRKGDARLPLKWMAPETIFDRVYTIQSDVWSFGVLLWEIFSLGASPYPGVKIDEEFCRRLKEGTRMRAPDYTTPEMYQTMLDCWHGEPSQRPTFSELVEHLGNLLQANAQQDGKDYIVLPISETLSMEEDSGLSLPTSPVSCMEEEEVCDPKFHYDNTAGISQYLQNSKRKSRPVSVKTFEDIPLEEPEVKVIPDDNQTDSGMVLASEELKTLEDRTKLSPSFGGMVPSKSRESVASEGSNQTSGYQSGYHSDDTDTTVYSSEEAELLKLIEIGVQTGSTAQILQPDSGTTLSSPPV

For the compound `COc1ccc(C2Cc3cnc(Nc4ccccc4)nc3N(c3ccccc3)C2=O)cc1` (stereo not drawn) [Example 1f, 6-(4-Methoxy-phenyl)-8-phenyl-2-phenylamino-5,8-dihydro-6H-pyrido[2,3-d]pyrimidin-7-one], the IC50 in assay [1], in assay [2], in assay [3] and in assay [4] was < 10 µM in each case.

For the compound `Cc1ccccc1C1Cc2cnc(Nc3ccccc3)nc2N(c2ccccc2)C1=O` (stereo not drawn) [Example 4c, 8-Phenyl-2-phenylamino-6-O-tolyl-5,8-dihydro-6H-pyrido[2,3-d]pyrimidin-7-one], the IC50 in assay [1], in assay [2], in assay [3] and in assay [4] was < 10 µM in each case.

Turning to `O=C1C(c2ccccc2)Cc2cnc(Nc3ccccc3)nc2N1c1ccccc1` (stereo not drawn) [Example 5c, 6,8-Diphenyl-2-phenylamino-5,8-dihydro-6H-pyrido[2,3-d]pyrimidin-7-one], the IC50 in assay [1], in assay [2], in assay [3] and in assay [4] was < 10 µM each time.

`COc1ccc(OC)c(C2Cc3cnc(Nc4ccccc4)nc3N(c3ccccc3)C2=O)c1` (stereo not drawn) [Example 6c, 6-(2,5-Dimethoxy-phenyl)-8-phenyl-2-phenylamino-5,8-dihydro-6H-pyrido[2,3-d]pyrimidin-7-one]: the half-maximal inhibitory concentration (IC50) in assay [1], in assay [2], in assay [3] and in assay [4] was < 10 µM throughout.

`COc1ccccc1C1Cc2cnc(Nc3ccccc3)nc2N(c2ccccc2)C1=O` (stereo not drawn) [Example 7c, 6-(2-Methoxy-phenyl)-8-phenyl-2-phenylamino-5,8-dihydro-6H-pyrido[2,3-d]pyrimidin-7-one]: the half-maximal inhibitory concentration (IC50) in assay [1], in assay [2], in assay [3] and in assay [4] was < 10 µM each time.

As for `O=C1C(c2cc(C(F)(F)F)cc(C(F)(F)F)c2)Cc2cnc(Nc3ccccc3)nc2N1c1ccccc1` (stereo not drawn) [Example 8d, 6-(3,5-Bis-trifluromethyl-phenyl)-8-phenyl-2-phenylamino-5,8-dihydro-6H-pyrido[2,3-d]pyrimidin-7-one], the IC50 in assay [1] was < 10 µM; in assay [2], > 10 µM; in assay [3], > 10 µM; in assay [4], > 10 µM.

Take `O=C1C(c2ccncc2)Cc2cnc(Nc3ccccc3)nc2N1c1ccccc1` (stereo not drawn) [Example 9c, 8-Phenyl-2-phenylamino-6-pyridin-4-yl-5,8-dihydro-6H-pyrido[2,3-d]pyrimidin-7-one]: the IC50 was > 10 µM in assay [1], > 10 µM in assay [2], < 10 µM in assay [3] and < 10 µM in assay [4].

As for `O=C1C(c2cccnc2)Cc2cnc(Nc3ccccc3)nc2N1c1ccccc1` (stereo not drawn) [Example 10c, 8-Phenyl-2-phenylamino-6-pyridin-3-yl-5,8-dihydro-6H-pyrido[2,3-d]pyrimidin-7-one], the half-inhibitory concentration (IC50) in assay [1], in assay [2], in assay [3] and in assay [4] was < 10 µM each time.

For the compound `COc1ccc(C2Cc3cnc(Nc4ccccc4)nc3N(c3ccccc3)C2=O)cc1OC` (stereo not drawn) [Example 11c, 6-(3,4-Dimethoxy-phenyl)-8-phenyl-2-phenylamino-5,8-dihydro-6H-pyrido[2,3-d]pyrimidin-7-one], the IC50 in assay [1] was < 10 µM; in assay [2], < 10 µM; in assay [3], < 10 µM; in assay [4], > 10 µM.

Consider `COc1ccc(C2Cc3cnc(Nc4ccc(OC)nc4)nc3N(c3ccccc3)C2=O)cc1` (stereo not drawn) [Example 12d, 6-(4-Methoxy-phenyl)-2-(6-methoxy-pyridin-3-ylamino)-8-phenyl-5,8-dihydro-6H-pyrido[2,3-d]pyrimidine-7-one], for which the IC50 in assay [1], in assay [2], in assay [3] and in assay [4] was < 10 µM throughout.

Regarding `COc1ccc(C2Cc3cnc(Nc4ccccc4)nc3N(CC(C)C)C2=O)cc1` (stereo not drawn) [Example 13b, 8-Isobutyl-6-(4-methoxy-phenyl)-2-phenylamino-5,8-dihydro-6H-pyrido[2,3-d]pyrimidine-7-one], the IC50 in assay [1], in assay [2], in assay [3] and in assay [4] was < 10 µM each time.

Take `COc1ccc(C2Cc3cnc(Nc4ccccc4)nc3N(CC3CC3)C2=O)cc1` (stereo not drawn) [Example 14b, 8-Cyclopropylmethyl-6-(4-methoxy-phenyl)-2-phenylamino-5,8-dihydro-6H-pyrido[2,3-d]pyrimidine-7-one]: the IC50 in assay [1], in assay [2], in assay [3] and in assay [4] was < 10 µM in each case.
